Experimental findings from patent US8119647B2, “Fused pyrimidineone compounds as TRPV3 modulators” (Glenmark Pharmaceuticals S.A., priority 2008, dated 2012) are described below.

The structures appear in SMILES notation. Read-outs that look alike come from different tables or passages of the source.

The inhibition is the percentage by which the read-out fell short of the control. For orientation: IC50 means the concentration at which inhibition is half-maximal.

The assay concerns the target T1, Human TRPV3 (Homo sapiens, UniProt Q8NET8).
T1 construct: expressed in transfected cells; host or cells: CHO cells (G-418 selection)
T1 sequence (Q8NET8 1-790): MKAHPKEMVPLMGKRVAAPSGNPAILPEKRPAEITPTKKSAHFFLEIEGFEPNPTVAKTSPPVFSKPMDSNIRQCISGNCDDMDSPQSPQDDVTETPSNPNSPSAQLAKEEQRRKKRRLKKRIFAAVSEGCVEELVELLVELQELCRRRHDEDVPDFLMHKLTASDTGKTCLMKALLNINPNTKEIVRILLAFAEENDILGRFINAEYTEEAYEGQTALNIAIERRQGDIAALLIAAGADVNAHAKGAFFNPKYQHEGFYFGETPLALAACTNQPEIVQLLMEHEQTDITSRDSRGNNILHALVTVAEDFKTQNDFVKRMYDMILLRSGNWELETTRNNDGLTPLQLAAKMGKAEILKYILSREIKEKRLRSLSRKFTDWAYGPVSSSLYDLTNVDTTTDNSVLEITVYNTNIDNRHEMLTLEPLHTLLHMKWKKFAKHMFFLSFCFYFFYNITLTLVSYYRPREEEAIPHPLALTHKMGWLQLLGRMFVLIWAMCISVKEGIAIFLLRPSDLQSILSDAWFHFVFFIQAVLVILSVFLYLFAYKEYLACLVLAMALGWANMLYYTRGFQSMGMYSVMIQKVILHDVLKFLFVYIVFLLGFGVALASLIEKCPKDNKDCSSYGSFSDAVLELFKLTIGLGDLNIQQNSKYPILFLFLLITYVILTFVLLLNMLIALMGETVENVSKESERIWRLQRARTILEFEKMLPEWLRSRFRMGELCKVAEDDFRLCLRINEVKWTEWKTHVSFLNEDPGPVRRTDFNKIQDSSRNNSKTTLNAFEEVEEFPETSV
The assay can be described thus: Screening for TRPV3 antagonist using the 45Calcium uptake assay (inhibition of 2-APB induced cellular uptake of radioactive calcium). Format: cell-based. To be noted: for inhibition at 1 µM: read-out: Percentage inhibition at 1.0 μM; for inhibition at 10 µM: read-out: Percentage inhibition at 10.0 μM; for IC50: class symbols. An outline of the steps:
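CHO cells stably expressing human TRPV3, preincubated 10 min with test compound, then 2-APB (500 μM final) plus 5 μCi/ml 45Ca2+ for 4 min in DMEM/F-12 with 1.8 mM CaCl2; 0.5% DMSO final. Lysate radioactivity by scintillation counting. IC50 by nonlinear regression of % maximal response; % inhibition at 1.0 and 10.0 μM.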

[1] abbreviates: 1.0 μM test compound, human TRPV3 expressing CHO cells, 2-APB 500 μM.
The mark [2] stands for this setting: 10.0 μM test compound, human TRPV3 expressing CHO cells, 2-APB 500 μM.
Setting [3] is: human TRPV3 expressing CHO cells, 2-APB 500 μM.

`O=c1c(-c2ccc(OC(F)(F)F)cc2)c(/C=C/c2cccc(F)c2OCC2CC2)nc2sccn12` [Example 49, 7-[(E)-2-(2-Cyclopropylmethoxy-3-fluorophenyl)-1-ethenyl]-6-[4-(trifluoromethoxy)-phenyl]-5H-[1,3]thiazolo[3,2-a]pyrimidin-5-one]: the inhibition at 1 µM under setting [1] was determined as 41.3%. Besides, the inhibition at 10 µM under setting [2] worked out at 77.3%.

On to `COc1cccc(/C=C/c2nc3sccn3c(=O)c2-c2ccc(C#N)cc2)c1OCc1cccc(F)c1` [Example 20], for which, under setting [1], the “Percentage inhibition at 1.0 μM” value was 56.5%. In addition, under setting [2], the “Percentage inhibition at 10.0 μM” value is given as 79.3%.

On to `COc1cccc(/C=C/c2nc3sccn3c(=O)c2-c2ccc(N(C)C)cc2)c1OCC1CC1` [Example 6, 6-(4-Dimethylaminophenyl)-7-[(E)-2-(2-cyclopropylmethoxy-3-methoxyphenyl]-1-ethenyl]-5H-[1,3]thiazolo[3,2-a]pyrimidin-5-one], for which, under setting [1], the inhibition at 1 µM came to 76%. Under setting [2], the inhibition at 10 µM is 95.3%. The IC50 under setting [3] lay in the range of 250 to 500 nM.

Regarding `COc1cccc(/C=C/c2nc3sc4ccccc4n3c(=O)c2-c2ccc(C#N)cc2)c1OCc1ccccn1` [Example 90], the “Percentage inhibition at 10.0 μM” value is given as 81.57%. Besides, the “Percentage inhibition at 1.0 μM” value under setting [1] was found to be 51.24%.

`COc1ccc(/C=C/c2nc3sccn3c(=O)c2-c2ccc(C(F)(F)F)cc2)cc1OCC1CC1` [Example 37, 7-[(E)-2-(3-Cyclopropylmethoxy-4-methoxyphenyl)-1-ethenyl]-6-[4-(trifluoromethyl)-phenyl]-5H-[1,3]thiazolo[3,2-a]pyrimidin-5-one]: under setting [1], the inhibition at 1 µM was determined as 39.6%. Also, the inhibition at 10 µM under setting [2] was 88.1%.

With `COc1cccc(/C=C/c2nc3sccn3c(=O)c2-c2ccc(C(F)(F)F)cc2)c1OCCC(C)C` [Example 28, 7-[(E)-2-(2-Isopentyloxy-3-methoxyphenyl)-1-ethenyl]-6-[4-(trifluoromethyl)phenyl]-5H-[1,3]thiazolo[3,2-a]pyrimidin-5-one], the inhibition at 1 µM under setting [1] was 59.7%. Besides, the inhibition at 10 µM under setting [2] stood at 85.3%.

On to `CCOCCOc1cccc(/C=C/c2nc3sccn3c(=O)c2-c2ccc(OC(F)(F)F)cc2)c1OCC1CC1` [Example 62, 7-{(E)-2-[2-(Cyclopropylmethoxy)-3-(2-ethoxyethoxy)phenyl]-1-ethenyl}-6-(4-trifluoro-methoxyphenyl)-5H-[1,3]thiazolo[3,2-a]pyrimidin-5-one], for which the “Percentage inhibition at 1.0 μM” value under setting [1] was 30.6%. The “Percentage inhibition at 10.0 μM” value under setting [2] is on record as 55.9%.

For `COc1cccc(/C=C/c2nc3sccn3c(=O)c2-c2ccc(OC(F)(F)F)cc2)c1OC1CCCC1` [Example 68], the inhibition at 1 µM under setting [1] was found to be 75.8%. Moreover, the inhibition at 10 µM under setting [2] turned out to be 83.6%. Also, under setting [3], the IC50 was below 250 nM.

For `COc1cccc(/C=C/c2nc3sccn3c(=O)c2-c2ccc(OC(F)(F)F)cc2)c1OCCC(C)C` [Example 50, 7-[(E)-2-{2-Isopentyloxy-3-methoxyphenyl}-1-ethenyl]-6-[4-(trifluoromethoxy)phenyl]-5H-[1,3]thiazolo[3,2-a]pyrimidin-5-one], under setting [1], the inhibition at 1 µM was determined as 81.9%. Also, under setting [2], the inhibition at 10 µM stood at 89.8%. In addition, the IC50 under setting [3] was below 250 nM.

As for `COc1cccc(/C=C/c2nc3sccn3c(=O)c2-c2ccc(OC(F)(F)F)cc2)c1OCCC(F)(F)F` [Example 70, 7-[(E)-2-{3-Methoxy-2-(2-trifluoromethylethoxy)phenyl}-1-ethenyl]-6-[4-(trifluoromethoxy)phenyl]-5H-[1,3]thiazolo[3,2-a]pyrimidin-5-one], the inhibition at 1 µM under setting [1] amounted to 90.8%. Moreover, under setting [2], the inhibition at 10 µM is 97.9%. Also, the IC50 under setting [3] was below 250 nM.

In the case of `CCCCCOc1c(/C=C/c2nc3sccn3c(=O)c2-c2ccc(OC(F)(F)F)cc2)cccc1OC` [Example 55, 7-[(E)-2-(3-Methoxy-2-pentyloxyphenyl)-1-ethenyl]-6-[4-(trifluoromethoxy)phenyl]-5H-[1,3]thiazolo[3,2-a]pyrimidin-5-one], the inhibition at 1 µM under setting [1] worked out at 81.7%. Moreover, the inhibition at 10 µM under setting [2] was 92.8%. For the same molecule, the IC50 under setting [3] is below 250 nM.

Consider `COc1cccc(/C=C/c2nc3sccn3c(=O)c2-c2cc(F)cc(F)c2)c1OCC1CC1` [Example 8], for which, under setting [1], the “Percentage inhibition at 1.0 μM” value amounted to 2.0%. For the same molecule, under setting [2], the “Percentage inhibition at 10.0 μM” value is given as 20.5%.

For the molecule `CCOCCOc1c(/C=C/c2nc3sccn3c(=O)c2-c2ccc(OC(F)(F)F)cc2)cccc1OC` [Example 53, 7-[(E)-2-{2-(2-Ethoxyethoxy)-3-methoxyphenyl}-1-ethenyl]-6-[4-(trifluoromethoxy)phenyl]-5H-[1,3]thiazolo[3,2-a]pyrimidin-5-one], the inhibition at 1 µM under setting [1] is 89.9%. Under setting [2], the inhibition at 10 µM was 95.9%. Moreover, under setting [3], the IC50 is below 250 nM.

For `CCOc1cccc(/C=C/c2nc3sccn3c(=O)c2-c2ccc(OC(F)(F)F)cc2)c1OCC1CC1` [Example 61, 7-{(E)-2-[2-(Cyclopropylmethoxy)-3-ethoxyphenyl}-1-ethenyl]-6-(4-trifluoromethoxy-phenyl)-5H-[1,3]thiazolo[3,2-a]pyrimidin-5-one], the inhibition at 1 µM under setting [1] is 22.7%. Besides, the inhibition at 10 µM under setting [2] was 60.6%.

In the case of `O=c1c(-c2ccc(C(F)(F)F)cc2)c(/C=C/c2cccnc2)nc2sccn12` [Example 39, 7-[(E)-2-Pyridin-3-ylvinyl]-6-[4-(trifluoromethyl)phenyl]-5H-[1,3]thiazolo[3,2-a]pyrimidin-5-one], the inhibition at 1 µM under setting [1] was 4.11%. In addition, the inhibition at 10 µM under setting [2] is 15.2%.

For the molecule `COc1cccc(/C=C/c2nc3sc(Cl)cn3c(=O)c2-c2ccc(OC(F)(F)F)cc2)c1OCC(C)(C)C` [Example 78, 2-Chloro-7-[(E)-2-(2-(2,2-dimethylpropoxy)-3-methoxyphenyl)vinyl]-6-[4-(trifluoromethoxy)phenyl]-5H-[1,3]thiazolo[3,2-a]pyrimidin-5-one], the inhibition at 1 µM under setting [1] amounted to 27.1%. For the same molecule, the inhibition at 10 µM under setting [2] turned out to be 47.5%.

For the molecule `COc1cccc(/C=C/c2nc3sccn3c(=O)c2-c2ccc(OCCCC#N)cc2)c1OCC1CC1` [Example 46], where the note is “CHO”, the inhibition at 1 µM worked out at 10% and the inhibition at 10 µM is 52.8%.

For `COc1cccc(/C=C/c2nc3sccn3c(=O)c2-c2ccc(C#N)cc2)c1OCCCC#N` [Example 22, 4-{7-[(E)-2-{2-(3-Cyanopropoxy)-3-(methoxyphenyl)-1-ethenyl]}-5-oxo-5H-[1,3]-thiazolo[3,2-a]pyrimidin-6-yl}benzonitrile], the “Percentage inhibition at 1.0 μM” value under setting [1] is given as 16.1%. Moreover, the “Percentage inhibition at 10.0 μM” value under setting [2] is 24.5%.
